From the NIST ThermoML archive (doi:10.1016/j.tca.2004.11.022) come the findings set out here.

Numbers after ± are expanded uncertainties.

Data set [1] can be described thus: molar heat capacity at constant pressure. The conditions noted are these: 101.33 kPa, Liquid, Small sample (50 mg) DSC.
The conditions of data set [2]: 101.33 kPa, Liquid; for mass density: Vibrating tube method; for speed of sound: Pulse-echo method.

What is called mass density is the mass of a sample divided by its volume. As a reminder, the speed of sound is how fast a sound wave travels through the sample. `CCCCCCCCC` [nonane]: the “molar heat capacity at constant pressure” value in data set [1] (288.15 K) is reported as 280.13 ± 5.6 J/K/mol; in data set [1] (298.15 K) it was 284.23 ± 5.7 J/K/mol; in data set [1] (308.15 K), 288.8 ± 5.8 J/K/mol. Further, the mass density is reported as 721.66 ± 0.41 kg/m3 in data set [2] (288.15 K), 717.75 ± 0.41 kg/m3 in data set [2] (293.15 K), 713.85 ± 0.41 kg/m3 in data set [2] (298.15 K) and 706.05 ± 0.41 kg/m3 in data set [2] (308.15 K). In data set [2] (298.15 K), the speed of sound was 1206.3 ± 1.6 m/s.

Regarding `CCCCCCCC` [octane], the “molar heat capacity at constant pressure” value was 250.12 ± 5 J/K/mol in data set [1] (288.15 K), 253.94 ± 5.1 J/K/mol in data set [1] (298.15 K) and 258.03 ± 5.2 J/K/mol in data set [1] (308.15 K). In addition, the mass density in data set [2] (288.15 K) amounted to 706.54 ± 0.26 kg/m3; in data set [2] (293.15 K), 702.53 ± 0.26 kg/m3; in data set [2] (298.15 K) it was 698.5 ± 0.27 kg/m3; in data set [2] (308.15 K) it was 690.34 ± 0.27 kg/m3. Besides, the speed of sound in data set [2] (298.15 K) is listed as 1172.1 ± 1.3 m/s.

For the compound `COC(=O)OC` [dimethyl carbonate], the “molar heat capacity at constant pressure” value in data set [1] (288.15 K) is on record as 164.03 ± 3.3 J/K/mol; in data set [1] (298.15 K), 165.02 ± 3.3 J/K/mol; in data set [1] (308.15 K), 166.3 ± 3.3 J/K/mol. Moreover, the mass density was determined as 1076.56 ± 0.55 kg/m3 in data set [2] (288.15 K), 1070.02 ± 0.55 kg/m3 in data set [2] (293.15 K), 1063.42 ± 0.55 kg/m3 in data set [2] (298.15 K) and 1050.11 ± 0.54 kg/m3 in data set [2] (308.15 K). Moreover, the speed of sound in data set [2] (298.15 K) turned out to be 1197.1 ± 1.6 m/s.
